Assay results as given in PubChem BioAssay (NCI).
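Compound exposure: 48 hours, 5 concentrations, 96-well plates. TGI: concentration producing complete growth inhibition.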

Experiments:
Assay in all cases: NCI anticancer screen, dose series, 48 h
786-0 renal = test system: 786-0 renal
A498 renal = test system: A498 renal
A549 NSCLC = test system: A549 NSCLC
ACHN renal = test system: ACHN renal
BT-549 breast = test system: BT-549 breast
CAKI-1 renal = test system: CAKI-1 renal
CCRF-CEM leukemia = test system: CCRF-CEM leukemia
COLO 205 colon = test system: COLO 205 colon
DU-145 prostate = test system: DU-145 prostate
HCC-2998 colon = test system: HCC-2998 colon
HCT-116 colon = test system: HCT-116 colon
HCT-15 colon = test system: HCT-15 colon
HL-60(TB) leukemia = test system: HL-60(TB) leukemia
HOP-62 NSCLC = test system: HOP-62 NSCLC
HS 578T breast = test system: HS 578T breast
HT29 colon = test system: HT29 colon
IGROV1 ovarian = test system: IGROV1 ovarian
K-562 leukemia = test system: K-562 leukemia
KM12 colon = test system: KM12 colon
M14 melanoma = test system: M14 melanoma
MALME-3M melanoma = test system: MALME-3M melanoma
MCF7 breast = test system: MCF7 breast
MDA-MB-231 breast = test system: MDA-MB-231 breast
MDA-MB-435 = test system: MDA-MB-435
MDA-N = test system: MDA-N
MOLT-4 leukemia = test system: MOLT-4 leukemia
NCI-H226 lung = test system: NCI-H226 lung
NCI-H23 lung = test system: NCI-H23 lung
NCI-H460 lung = test system: NCI-H460 lung
NCI-H522 lung = test system: NCI-H522 lung
NCI/ADR-RES ovarian = test system: NCI/ADR-RES ovarian
OVCAR-3 ovarian = test system: OVCAR-3 ovarian
OVCAR-5 ovarian = test system: OVCAR-5 ovarian
OVCAR-8 ovarian = test system: OVCAR-8 ovarian
PC-3 prostate = test system: PC-3 prostate
SF-268 CNS = test system: SF-268 CNS
SF-295 CNS = test system: SF-295 CNS
SF-539 CNS = test system: SF-539 CNS
SK-MEL-2 melanoma = test system: SK-MEL-2 melanoma
SK-MEL-28 melanoma = test system: SK-MEL-28 melanoma
SK-MEL-5 melanoma = test system: SK-MEL-5 melanoma
SK-OV-3 ovarian = test system: SK-OV-3 ovarian
SN12C renal = test system: SN12C renal
SNB-19 CNS = test system: SNB-19 CNS
SNB-75 CNS = test system: SNB-75 CNS
SR leukemia = test system: SR leukemia
SW-620 colon = test system: SW-620 colon
T-47D breast = test system: T-47D breast
TK-10 renal = test system: TK-10 renal
U251 CNS = test system: U251 CNS
UACC-257 melanoma = test system: UACC-257 melanoma
UACC-62 melanoma = test system: UACC-62 melanoma
UO-31 renal = test system: UO-31 renal
DLD-1 colon = test system: DLD-1 colon
EKVX NSCLC = test system: EKVX NSCLC
HOP-92 NSCLC = test system: HOP-92 NSCLC
KM20L2 colon = test system: KM20L2 colon
LOX IMVI melanoma = test system: LOX IMVI melanoma
LXFL 529 NSCLC = test system: LXFL 529 NSCLC
M19-MEL melanoma = test system: M19-MEL melanoma
OVCAR-4 ovarian = test system: OVCAR-4 ovarian
RPMI-8226 leukemia = test system: RPMI-8226 leukemia
SNB-78 CNS = test system: SNB-78 CNS
XF 498 CNS = test system: XF 498 CNS

Measured: TGI

O=C(NCCNCCO)N/N=C/c1ccc(Cl)cc1
not listed: DLD-1 colon | EKVX NSCLC | HOP-92 NSCLC | KM20L2 colon | LOX IMVI melanoma | LXFL 529 NSCLC | M19-MEL melanoma | OVCAR-4 ovarian | RPMI-8226 leukemia | SNB-78 CNS | XF 498 CNS
> 100 µM: all other assays above

CCOC(=O)C(C(=O)Cc1ccccc1)c1ccccc1 (stereo not given)
not listed: A498 renal | BT-549 breast | DU-145 prostate | HCC-2998 colon | HS 578T breast | MCF7 breast | MDA-MB-231 breast | MDA-MB-435 | MDA-N | NCI/ADR-RES ovarian | PC-3 prostate | T-47D breast
> 100 µM: all other assays above
